{"source": "patent US20260191933A1", "about": "“PHARMACEUTICAL COMBINATIONS AND USES THEREOF” (The University of Melbourne, priority 2022, published 2026)", "key": {"[1]": {"tested_on": "diet-induced obese mice", "assay": "I.C.V. PZ6005 and/or S.C. liraglutide: I.P. GTT", "assay_type": "in vivo, C57BL/6j mice", "settings": "day 14; 6 hours fasted; compared with the control treatment", "protocol": "Metabolic measurements were undertaken in the Melbourne Mouse Metabolic Phenotyping Platform (The University of Melbourne, Australia). Glucose tolerance tests were performed on 6 h fasted conscious mice respectively by injecting D-glucose (2 mg/g of lean body mass and 1 mg/g lean mass for db/db and HFHS+STZ mice) into the peritoneal cavity and measuring glucose in tail blood immediately before and at 15, 30, 45, 60, 90 and 120 min after injection using an Accu-Check glucometer (Roche, Germany). The areas under glucose excursion curves were determined and expressed as mmol/l×min. Fasted (12 h fast) plasma insulin or glucose levels were determined using a Rat/Mouse Insulin ELISA (EZRMI-13K, Merck Millipore, CA) or an Accu-Check glucometer respectively. The HOMA-IR was calculated using the equation [(glucose×insulin)/405]. Adiposity was measured using TD-NMR minispec (Bruker Optics Inc., Billerica, MA)."}, "[2]": {"tested_on": "GLP-1 receptor signalling (pERK) in the ARC", "assay": "I.C.V. PZ6005 and/or S.C. liraglutide: ARC pERK +ve. cells after liraglutide", "assay_type": "in vivo, C57BL/6j mice", "settings": "after 28-day treatment; compared to controls and liraglutide alone"}, "[3]": {"tested_on": "ARC insulin receptor signalling (pAKT)", "assay": "I.C.V. PZ6005 and/or S.C. liraglutide: ARC pAKT +ve. cells after insulin", "assay_type": "in vivo, C57BL/6j mice", "settings": "after 28-day treatment; compared with liraglutide alone group", "protocol": "(§1) Mice were injected intraperitoneally with vehicle (PBS) or insulin (3 mU/g, i.p., Actrapid, Nova Nordisk, Denmark) and mice were transcardially perfused (as described above) 15 min with 10% neutral buffered formalin. The brains were post-fixed for 16 h on a rocking platform at RT and then kept for two days in 30% sucrose in PBS to cryoprotect the tissue, before freezing on dry ice. 30 μm sections were cut in the coronal plane throughout the entire rostral-caudal extent of the hypothalamus. Sections were pre-treated for 10 mins in 0.3% glycine, washed in PBS-T and incubated for 10 min in 0.03% SDS. Sections were then blocked in 5% blocking buffer for 1 h at RT and incubated for 48 h with rabbit anti-p-AKT (Ser-473) (1:300; #4060, Cell Signaling Technology, Beverly, MA) in 1% blocking buffer. Sections were then incubated in 5% blocking buffer containing either goat anti-rabbit Alexa Fluor 647 (ab150083, Abcam, Cambridge, UK) or biotinylated goat anti-rabbit (BA-1000, Vector Laboratories, CA, no sodium azide in blocking buffer). […]"}, "[4]": {"tested_on": "insulin receptor signalling within the ARC (pAKT)", "assay": "Intranasal PZ6005: ARC pAKT +ve. cells after insulin", "assay_type": "in vivo, C57BL/6J mice", "settings": "both doses, 14-day intranasal administration", "protocol": "as §1"}, "[5]": {"tested_on": "ARC CSPG-ECM", "assay": "Intranasal PZ6005 in obese mice: ARC CSPG-ECM expression (WFA immunostaining)", "assay_type": "in vivo, C57BL/6J mice", "settings": "for ARC neurofibrosis / area and intensity of ARC CSPG-ECM: obese mice, intranasal 14 days, 1 or 5 mg/animal/day", "protocol": "(§2) All image quantification was performed in Image J (NIH) software (NIH, MA). Raw images underwent background subtraction using a rolling ball algorithm to minimize background and any potential variance in tissue autofluorescence. To quantify area and intensity of the CSPG-ECM within each brain region (ARC, VMH or RSG cortex) images were thresholded and binarized to create a region of interest (ROI) mask of only the CSPG-ECM. For each brain area, CSPG-ECM ROI area (μm^2) and intensity (sum of all pixel intensities within the ROI) was calculated. This process was automated to minimise bias and to account for differences in brain nuclei size across multiple images. Brain nuclei were defined in accordance with the Paxinos and Franklin mouse brain atlas (http://labs.gaidi.ca/mouse-brain-atlas/). The area and intensity of CSPG-ECM within each region was normalised to the respective control."}, "[6]": {"tested_on": "12-week HFHS fed obese mice", "assay": "Example 21: glycaemic control in treatment and off-treatment phase (GTT, ITT, fasting glucose)", "assay_type": "in vivo, C57BL/6J male mice", "settings": "treatment phase", "description": "Under 2-5% (v/v) isoflurane in 1 L/min oxygen, 12-week-HFHS-diet-fed and aged-matched chow-fed C57BL/6J male mice were implanted stereotaxically with guide cannulas in the right lateral ventricle (measurement of the coordinates were described as Chapter 2; Anterior/Posterior: −1.00 mm, Medial/Lateral: +0.20 mm). Guide cannulas were made by polishing the shaft of hypodermic needles (19 Gauge, Livingstone, Australia) to 1.00 mm long. The tip of the guide cannula was positioned 1.00 mm above the target region (1.00 mm ventral to the surface of the mouse skull). The mice were allowed 2-3 days for recovery before further experimental manipulations.\nAwake 12-week-HFHS-diet-fed and aged-matched chow-fed C57BL/6J male mice were restrained by scruffing and inverted in the head-down position. […]\nGlucose tolerance test was conducted on 6-hrs fasted conscious mice by injecting D-glucose (2 mg/g of lean body mass) into the peritoneal cavity and measuring blood glucose levels by taking tail blood immediately at 0, 15, 30, 60, 90 and 120 mins after injection using an Accu-Check glucometer (Roche, Germany). The area under the glucose excursion curve was determined and represented as mmol/L×min. Fasted (24 hr fast) glucose level was measured using an Accu-Check glucometer. […]"}, "[7]": {"tested_on": "ARC CSPG-ECM", "assay": "I.C.V. PZ6005 and/or S.C. liraglutide, 28-day treatment: ARC CSPG-ECM (WFA)", "assay_type": "in vivo, C57BL/6j mice", "settings": "PZ6005 100 μg/animal I.C.V. every other day first 14 days; liraglutide 200 μg/kg/day S.C. 28 days", "protocol": "as §2"}, "[8]": {"settings": "intranasal 1 mg/animal/day, 14 days"}}}
{"smiles": "CC(=O)NC1C(OC(C)=O)OC(COC(C)=O)[C@@H](F)C1OC(C)=O", "note": "(stereo partly shown) [PZ6005, per-O-acetylated-4-F-N-acetylglucosamine]", "values": [{"measurement": "glucose excursion (I.P. GTT)", "setting": "[1]", "result": "reduced glucose excursion"}, {"measurement": "ARC pERK +ve. cells", "setting": "[2]", "result": "markedly increased"}, {"measurement": "ARC pAKT +ve. cells", "setting": "[3]", "result": "more ARC pAKT +ve. cells"}, {"measurement": "ARC pAKT +ve. cells", "setting": "[4]", "result": "robust increase"}, {"measurement": "CSPG-ECM area lower than the controls", "setting": "[5]; [8]", "result": "13.54±1.03", "unit": "%"}, {"measurement": "CSPG-ECM intensity decreased by", "setting": "[5]; [8]", "result": "15.94±7.17", "unit": "%"}, {"measurement": "CSPG-ECM intensity reduced by", "setting": "[5]; intranasal 5 mg/animal/day (highest dose), 14 days", "result": "30.16±1.52", "unit": "%"}, {"measurement": "CSPG-ECM area lower than the controls", "setting": "[5]; intranasal 5 mg/animal/day, 14 days", "result": "13.59±4.09", "unit": "%"}, {"measurement": "ARC neurofibrosis / area and intensity of ARC CSPG-ECM", "setting": "[5]", "result": "robustly diminished"}, {"measurement": "ARC neurofibrosis / area and intensity of ARC CSPG-ECM", "setting": "[5]; listed as fluorosamine", "result": "successfully attenuated"}, {"measurement": "glucose tolerance / glycaemic regulation", "setting": "[6]", "result": "improved glucose tolerance"}, {"measurement": "ARC CSPG-ECM intensity reduced by, compared with the mice receiving liraglutide", "setting": "[7]", "result": "22.65±7.851", "unit": "%"}, {"measurement": "CSPG-ECM area lower than liraglutide group", "setting": "[7]", "result": "31.56±3.73", "unit": "%"}]}
